Square brackets hold non-standard residues; d marks the D form. Peptide text beside a SMILES is read from it. * marks the point of attachment. X1 = O=C(COc1ccc(/C=C/C2=[N+]3C(=Cc4ccc(-c5cccs5)n4[B-]3(F)F)C=C2)cc1)*; Propanoyl(3-Pip(4-O-2-BnPh)) = O=C(CCN1CCC(Oc2ccccc2Cc2ccccc2)CC1)*; βAla = NCCC(=O)O
Molecular target: Nluc-H1R (Homo sapiens, UniProt P35367)
Assay: NanoBRET saturation binding assay on Nluc-H1R expressing HEK293T cells
Parameters: expressed in transfected cells
Details: saturation binding curves, whole HEK293T cells; for pKD: non-specific with 10 μM mepyramine, mean ± SEM
Text: Total and non-specific saturation binding curves from NanoBRET saturation binding assay were fitted simultaneously using eq 1: [drawing 4] 1 where Bmax is the maximal specific binding, [B] is the concentration of fluorescent ligand in nM, KD is the equilibrium dissociation constant in nM, M is the slope of the non-specific component, and C is the intercept with the Y axis.

Sequence of Nluc-H1R (P35367 whole entry): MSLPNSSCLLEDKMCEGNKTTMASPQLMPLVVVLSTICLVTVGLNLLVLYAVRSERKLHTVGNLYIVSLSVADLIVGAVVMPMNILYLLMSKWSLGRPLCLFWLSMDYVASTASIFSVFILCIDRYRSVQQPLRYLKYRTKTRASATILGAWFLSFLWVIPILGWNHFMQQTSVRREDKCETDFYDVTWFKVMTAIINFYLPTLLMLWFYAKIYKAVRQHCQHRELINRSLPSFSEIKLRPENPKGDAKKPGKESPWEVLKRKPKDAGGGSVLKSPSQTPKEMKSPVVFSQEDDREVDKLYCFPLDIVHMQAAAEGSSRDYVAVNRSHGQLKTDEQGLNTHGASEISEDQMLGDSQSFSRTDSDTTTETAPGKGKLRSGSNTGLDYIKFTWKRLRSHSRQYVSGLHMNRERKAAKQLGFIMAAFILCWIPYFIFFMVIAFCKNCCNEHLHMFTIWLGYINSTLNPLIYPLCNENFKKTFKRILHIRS

| Compound | Kd [nM] | pKD |
| --- | --- | --- |
| CC(C)[C@H](NC(=O)CCN1CCC(Oc2ccccc2Cc2ccccc2)CC1)C(=O)N[C@@H](CCC(=O)O)C(=O)N[C@@H](CC(N)=O)C(=O)N[C@@H](Cn1cc(COc2ccc(/C=C/C3=[N+]4C(=Cc5ccc(-c6cccs6)n5[B-]4(F)F)C=C3)cc2)nn1)C(N)=O [Compound 22c, (S)-5-(((S)-4-Amino-1-(((S)-1-amino-3-(4-((4-((E)-2-(5,5-difluoro-7-(thiophen-2-yl)-5H-5λ^4,6λ^4-dipyrrolo[1,2-c:2’,1’-f][1,3,2]diazaborinin-3-yl)vinyl)phenoxy)methyl)-1H-1,2,3-triazol-1-yl)-1-oxopropan-2-yl)amino)-1,4-dioxobutan-2-yl)amino)-4-((S)-2-(3-(4-(2-benzylphenoxy)piperidin-1-yl)propanamido)-3-methylbutanamido)-5-oxopentanoic Acid] | 162 | 6.79 ± 0.04 |
| CC(C)[C@H](NC(=O)CCN1CCC(Oc2ccccc2Cc2ccccc2)CC1)C(=O)N[C@@H](CO)C(=O)N[C@@H](CC(N)=O)C(=O)NCCC(=O)N[C@@H](CCCn1cc(COc2ccc(/C=C/C3=[N+]4C(=Cc5ccc(-c6cccs6)n5[B-]4(F)F)C=C3)cc2)nn1)C(N)=O [Compound 28a, (S)-N1-(3-(((S)-1-Amino-5-(4-((4-((E)-2-(5,5-difluoro-7-(thiophen-2-yl)-5H-5λ^4,6λ^4-dipyrrolo[1,2-c:2’,1’-f][1,3,2]diazaborinin-3-yl)vinyl)phenoxy)methyl)-1H-1,2,3-triazol-1-yl)-1-oxopentan-2-yl)amino)-3-oxopropyl)-2-((S)-2-((S)-2-(3-(4-(2-benzylphenoxy)piperidin-1-yl)propanamido)-3-methylbutanamido)-3-hydroxypropanamido)succinamide] | 20 | 7.70 ± 0.05 |
| C[C@H](NC(=O)CCN1CCC(Oc2ccccc2Cc2ccccc2)CC1)C(=O)N[C@@H](C)C(=O)N[C@@H](C)C(=O)NCCC(=O)N[C@@H](CCCn1cc(COc2ccc(/C=C/C3=[N+]4C(=Cc5ccc(-c6cccs6)n5[B-]4(F)F)C=C3)cc2)nn1)C(N)=O [Compound 28b, (S)-2-((6S,9S,12S)-16-(4-(2-Benzylphenoxy)piperidin-1-yl)-6,9,12-trimethyl-5,8,11,14-tetraoxo-4,7,10,13-tetraazahexadecanamido)-5-(4-((4-((E)-2-(5,5-difluoro-7-(thiophen-2-yl)-5H-5λ^4,6λ^4-dipyrrolo[1,2-c:2’,1’-f][1,3,2]diazaborinin-3-yl)vinyl)phenoxy)methyl)-1H-1,2,3-triazol-1-yl)pentanamide] | 14 | 7.86 ± 0.06 |
| CC(C)[C@H](NC(=O)CCN(C)CC/C=C1\c2ccccc2COc2ccccc21)C(=O)N[C@@H](CO)C(=O)N[C@@H](CC(N)=O)C(=O)NCCC(=O)N[C@@H](CCCn1cc(COc2ccc(/C=C/C3=[N+]4C(=Cc5ccc(-c6cccs6)n5[B-]4(F)F)C=C3)cc2)nn1)C(N)=O [Compound 28c, (S)-N1-(3-(((S)-1-Amino-5-(4-((4-((E)-2-(5,5-difluoro-7-(thiophen-2-yl)-5H-5λ^4,6λ^4-dipyrrolo[1,2-c:2’,1’-f][1,3,2]diazaborinin-3-yl)vinyl)phenoxy)methyl)-1H-1,2,3-triazol-1-yl)-1-oxopentan-2-yl)amino)-3-oxopropyl)-2-((S)-2-((S)-2-(3-(((E)-3-(dibenzo[b,e]oxepin-11(6H)-ylidene)propyl)(methyl)amino)propanamido)-3-methylbutanamido)-3-hydroxypropanamido)succinamide] | 19 | 7.72 ± 0.11 |
| C[C@H](NC(=O)CCN(C)CC/C=C1\c2ccccc2COc2ccccc21)C(=O)N[C@@H](C)C(=O)N[C@@H](C)C(=O)NCCC(=O)N[C@@H](CCCn1cc(COc2ccc(/C=C/C3=[N+]4C(=Cc5ccc(-c6cccs6)n5[B-]4(F)F)C=C3)cc2)nn1)C(N)=O [Compound 28d] | 5 | 8.27 ± 0.05 |
| CC(C)[C@H](NC(=O)CCN1CCC(Oc2ccccc2Cc2ccccc2)CC1)C(=O)N[C@@H](C)C(=O)N[C@@H](CC(N)=O)C(=O)NCCC(=O)N[C@@H](CCCCNC(=O)COc1ccc(/C=C/C2=[N+]3C(=Cc4ccc(-c5cccs5)n4[B-]3(F)F)C=C2)cc1)C(N)=O [Compound 31b, (S)-N1-(3-(((S)-1-Amino-6-(2-(4-((E)-2-(5,5-difluoro-7-(thiophen-2-yl)-5H-5λ^4,6λ^4-dipyrrolo[1,2-c:2’,1’-f][1,3,2]diazaborinin-3-yl)vinyl)phenoxy)acetamido)-1-oxohexan-2-yl)amino)-3-oxopropyl)-2-((S)-2-((S)-2-(3-(4-(2-benz-ylphenoxy)piperidin-1-yl)propanamido)-3-methylbutanamido)propanamido)succinamide] ({Propanoyl(3-Pip(4-O-2-BnPh))}-VAN[βAla]K(X1)-NH2) | 5 | 8.34 ± 0.09 |
| C[C@@H](O)[C@H](NC(=O)CCN1CCC(Oc2ccccc2Cc2ccccc2)CC1)C(=O)N[C@@H](CO)C(=O)N[C@@H](CC(N)=O)C(=O)NCCC(=O)N[C@@H](CCCCNC(=O)COc1ccc(/C=C/C2=[N+]3C(=Cc4ccc(-c5cccs5)n4[B-]3(F)F)C=C2)cc1)C(N)=O [Compound 31c, (S)-N1-(3-(((S)-1-Amino-6-(2-(4-((E)-2-(5,5-difluoro-7-(thiophen-2-yl)-5H-5λ^4,6λ^4-dipyrrolo[1,2-c:2’,1’-f][1,3,2]diazaborinin-3-yl)vinyl)phenoxy)acetamido)-1-oxohexan-2-yl)amino)-3-oxopropyl)-2-((S)-2-((2S,3R)-2-(3-(4-(2-benzylphenoxy)piperidin-1-yl)propanamido)-3-hydroxy-butanamido)-3-hydroxypropanamido)succinamide] ({Propanoyl(3-Pip(4-O-2-BnPh))}-TSN[βAla]K(X1)-NH2) | 6 | 8.20 ± 0.07 |
| C[C@H](NC(=O)[C@@H](NC(=O)CCN1CCC(Oc2ccccc2Cc2ccccc2)CC1)[C@@H](C)O)C(=O)N[C@@H](CC(N)=O)C(=O)NCCC(=O)N[C@@H](CCCCNC(=O)COc1ccc(/C=C/C2=[N+]3C(=Cc4ccc(-c5cccs5)n4[B-]3(F)F)C=C2)cc1)C(N)=O [Compound 31d, (S)-N1-(3-(((S)-1-Amino-6-(2-(4-((E)-2-(5,5-difluoro-7-(thiophen-2-yl)-5H-5λ^4,6λ^4-dipyrrolo[1,2-c:2’,1’-f][1,3,2]diazaborinin-3-yl)vinyl)phenoxy)acetamido)-1-oxohexan-2-yl)amino)-3-oxopropyl)-2-((S)-2-((2S,3R)-2-(3-(4-(2-benzylphenoxy)piperidin-1-yl)propanamido)-3-hydroxybutanamido)propanamido)succinamide] ({Propanoyl(3-Pip(4-O-2-BnPh))}-TAN[βAla]K(X1)-NH2) | 5 | 8.29 ± 0.07 |
| CC(C)[C@H](NC(=O)CCN1CCC(Oc2ccccc2Cc2ccccc2)CC1)C(=O)N[C@@H](CO)C(=O)N[C@@H](Cc1ccc(O)cc1)C(=O)NCCC(=O)N[C@@H](CCCCNC(=O)COc1ccc(/C=C/C2=[N+]3C(=Cc4ccc(-c5cccs5)n4[B-]3(F)F)C=C2)cc1)C(N)=O [Compound 31e, (S)-2-((6S,9S,12S)-16-(4-(2-Benzylphenoxy)piperidin-1-yl)-6-(4-hydroxybenzyl)-9-(hydroxymethyl)-12-isopropyl-5,8,11,14-tetraoxo-4,7,10,13-tetraazahexadecanamido)-6-(2-(4-((E)-2-(5,5-difluoro-7-(thiophen-2-yl)-5H-5λ^4,6λ^4-dipyrrolo[1,2-c:2’,1’-f][1,3,2]diazaborinin-3-yl)vinyl)phenoxy)acetamido)hexanamide] ({Propanoyl(3-Pip(4-O-2-BnPh))}-VSY[βAla]K(X1)-NH2) | 16 | 7.80 ± 0.11 |
| CC(C)[C@H](NC(=O)CCN1CCC(Oc2ccccc2Cc2ccccc2)CC1)C(=O)N[C@@H](C)C(=O)N[C@@H](Cc1ccc(O)cc1)C(=O)NCCC(=O)N[C@@H](CCCCNC(=O)COc1ccc(/C=C/C2=[N+]3C(=Cc4ccc(-c5cccs5)n4[B-]3(F)F)C=C2)cc1)C(N)=O [Compound 31f, (S)-2-((6S,9S,12S)-16-(4-(2-Benzylphenoxy)piperidin-1-yl)-6-(4-hydroxybenzyl)-12-isopropyl-9-methyl-5,8,11,14-tetraoxo-4,7,10,13-tetraazahexadecanamido)-6-(2-(4-((E)-2-(5,5-difluoro-7-(thiophen-2-yl)-5H-5λ^4,6λ^4-di-pyrrolo[1,2-c:2’,1’-f][1,3,2]diazaborinin-3-yl)vinyl)phenoxy)acetamido)hexanamide] ({Propanoyl(3-Pip(4-O-2-BnPh))}-VAY[βAla]K(X1)-NH2) | 11 | 7.96 ± 0.11 |
| C[C@@H](O)[C@H](NC(=O)CCN1CCC(Oc2ccccc2Cc2ccccc2)CC1)C(=O)N[C@@H](CO)C(=O)N[C@@H](Cc1ccc(O)cc1)C(=O)NCCC(=O)N[C@@H](CCCCNC(=O)COc1ccc(/C=C/C2=[N+]3C(=Cc4ccc(-c5cccs5)n4[B-]3(F)F)C=C2)cc1)C(N)=O [Compound 31g, (S)-2-((6S,9S,12S)-16-(4-(2-Benzylphenoxy)piperidin-1-yl)-6-(4-hydroxybenzyl)-12-((R)-1-hydroxyethyl)-9-(hydroxymethyl)-5,8,11,14-tetraoxo-4,7,10,13-tetraazahexadecanamido)-6-(2-(4-((E)-2-(5,5-difluoro-7-(thiophen-2-yl)-5H-5λ^4,6λ^4-dipyrrolo[1,2-c:2’,1’-f][1,3,2]diazaborinin-3-yl)vinyl)phenoxy)acetamido)hexanamide] ({Propanoyl(3-Pip(4-O-2-BnPh))}-TSY[βAla]K(X1)-NH2) | 7 | 8.16 ± 0.12 |

Reference: PMC9234962, “Optimization of Peptide Linker-Based Fluorescent Ligands for the Histamine H1 Receptor” (Journal of Medicinal Chemistry, 2022)
